Patent US8124581B2, “Methods for treating breast cancer using NRIF3 related molecules” (New York University, priority 2004, dated 2012)
Entries after “also recorded” stand apart in the source; their conditions may differ. Where a SMILES comes first, the peptide text is derived from it. The star is where a group is joined. Cbz = O=C(OCc1ccccc1)*; CH2F = FC*

How the values were obtained:
AIF-GFP = AIF-GFP translocation from mitochondria to nucleus in T-47D cells; assay type: cell-based, human; conditions: as early as 5 h after transfection
Procedure: (§1) Cell culture and transfection conditions. All breast cancer cell lines were maintained in DMEM (GIBCO-BRL, Life Technologies) supplemented with 10% fetal bovine serum (FBS). Other cells were cultured in DMEM supplemented with either 10% FBS or 10% Hyclone defined/supplemented bovine calf serum. For most of the transient transfections, T-47D cells were plated at a density of 3×10^4 cells/well on coverslips in 24-well tissue culture plates. About 20 h later, the cells were transfected with indicated plasmid(s) by Genefect transfection reagent (Molecula, USA) according to manufacturer's protocol. Generally, the amount of plasmids used in transfections was the following: GFP or GFP-fusion 300-500 ng, Bcl-2 or Bcl-xL 1-1.5 μg, AIF-GFP 500 ng, Gal4-DD1, GAl4-DD3 or Gal4 control 0.5-1 μg. After transfection, cells were incubated in DMEM/10% FBS medium for 5 h to 24 h before being harvested and processed for appropriate analyses. […]
(§2) Apoptosis assays. […] For quantitative analysis, fields consisting of at least several hundred cells were scanned, and a number of representative fields were photographed using GFP and rhodamine filters. Green and red cells from the same field were then counted. Generally, about one hundred of total green cells were counted for each data point. The percent of green cells counted that are also red were then calculated.

MB-MDA-435 cells = test: TUNEL apoptosis assay of transfected MB-MDA-435 cells; assay type: cell-based, human; conditions: MB-MDA-435 (ER−)
Procedure: as §1, §2

GH4C1 = test: TUNEL apoptosis assay of transfected GH4C1 cells; assay type: cell-based
Procedure: as §1, §2

MCF-7 cells = test: TUNEL apoptosis assay of transfected MCF-7 cells; assay type: cell-based, human; conditions: MCF-7 (ER+)
Procedure: as §1, §2

293 = test: TUNEL apoptosis assay of transfected 293 cells; assay type: cell-based
Procedure: as §1, §2

HBL100 cells = test: TUNEL apoptosis assay of transfected HBL100 cells; assay type: cell-based; conditions: HBL100, non-malignant immortalized breast epithelial cell line
Procedure: as §1, §2

HeLa cells [1] = test: TUNEL apoptosis assay of transfected HeLa cells; assay type: cell-based
Procedure: as §1, §2

T-47D cells [2] = test: TUNEL apoptosis assay of transfected T-47D cells; assay type: cell-based, human; conditions: T-47D cells transfected with expression vector
Procedure: as §1, §2

COS-1 = test: TUNEL apoptosis assay of transfected COS-1 cells; assay type: cell-based
Procedure: as §1, §2

MB-MDA-231 cells = test: TUNEL apoptosis assay of transfected MB-MDA-231 cells; assay type: cell-based, human; conditions: MB-MDA-231 (ER−)
Procedure: as §1, §2

UOK-145 = test: TUNEL apoptosis assay of transfected UOK-145 cells; assay type: cell-based
Procedure: as §1, §2

[3] = test system: ER+ derivative of MB-MDA-231; test: TUNEL apoptosis assay of transfected ER+ derivative of MB-MDA-231; assay type: cell-based, human
Procedure: as §1, §2

HeLa cells [4] = test: Apoptosis of HeLa cells treated with TNFα and cycloheximide; assay type: cell-based; conditions: same dose (100 uM); data not shown
Procedure: (§3) Cell culture and transfection conditions. All breast cancer cell lines were maintained in DMEM (GIBCO-BRL, Life Technologies) supplemented with 10% fetal bovine serum (FBS). Other cells were cultured in DMEM supplemented with either 10% FBS or 10% Hyclone defined/supplemented bovine calf serum. For most of the transient transfections, T-47D cells were plated at a density of 3×10^4 cells/well on coverslips in 24-well tissue culture plates. About 20 h later, the cells were transfected with indicated plasmid(s) by Genefect transfection reagent (Molecula, USA) according to manufacturer's protocol. Generally, the amount of plasmids used in transfections was the following: GFP or GFP-fusion 300-500 ng, Bcl-2 or Bcl-xL 1-1.5 μg, AIF-GFP 500 ng, Gal4-DD1, GAl4-DD3 or Gal4 control 0.5-1 μg. After transfection, cells were incubated in DMEM/10% FBS medium for 5 h to 24 h before being harvested and processed for appropriate analyses. Transient transfection of other breast cancer cell lines were carried out similarly, except that the transfection reagent used was Lipofectamine 2000 (Life technologies). All other cells were transfected using Geneporter 2 (Gene Therapy Systems). When indicated, the following compounds were included in the medium: all-trans retinoic acid (100 nM), etopside (100 μM), zVAD-fmk (100 μM), zVDVAD-fmk (20 μM), TNFα (10 ng/ml) and cycloheximide (10 μg/ml).

T-47D cells [5] = test: Modulation of NRIF3- or DD1-mediated apoptosis in T-47D cells (TUNEL); assay type: cell-based, human
Procedure: as §3
siRNA studies. A small interference RNA (siRNA) duplex that efficiently silences human caspase-2 expression has been previously described (27), and was purchased from Dharmacon. The siRNA was dissolved at 20 pmol/μl in H2O. T-47D cells were plated at the density of 1.5×10^5 cells/well in 6-well plates the day before being transfected with siRNA. Transfection was carried out using Oligofectamine (Invitrogen), with 12 μl of dissolved siRNA and 12 μl of Oligofectamine reagent. Cells were fed with additional DMEM/10% FBS the second day, and harvested about 42 h after siRNA transfection. […] The harvested cells were then re-plated on cover-slips in 24-well plates as described earlier, and incubated for a few hours to let attachment occur. Cells were then transfected with the indicated GFP or GFP-fusion vectors as described earlier or treated with etoposide (100 μM). Cells were harvested about 20-24 h later and processed for appropriate assays. To document caspase-2 knock down, total lysates from siRNA transfected or control cells were quantified for protein concentrations. Equal amount of proteins were then subjected to SDS-PAGE, followed by Western analysis using a monoclonal antibody against caspase-2 (11B4, from Alexis).
Apoptosis assays. Cells plated on cover-slips in 24-well tissue culture plates were transfected and/or treated with appropriate compounds as indicated. Generally, cells were harvested within 20-24 h and processed for TUNEL and/or Annexin V assays. For Annexin V assay, cells were washed 3× with PBS and assayed using ApoAlert Nitric Oxide/Annexin V Dual Sensor Kit (BD Biosciences, USA) according to manufacturer's protocol. […] For quantitative analysis, fields consisting of at least several hundred cells were scanned, and a number of representative fields were photographed using GFP and rhodamine filters. Green and red cells from the same field were then counted. Generally, about one hundred of total green cells were counted for each data point. The percent of green cells counted that are also red were then calculated.

[6] = 100 uM inhibitor prior to and after transfection, T-47D

Compound: DD1: death domain 1, residues 20-50 of NRIF3 (SEQ ID NO:11), co-resides with transrepression domain RepD1 (PSKITRKKSVITYSPTTGTCQMSLFASPTSS; sequence of DD1)
- sub-cellular location of AIF-GFP upon co-expression (AIF-GFP): translocation of AIF-GFP from mitochondria to the nucleus
- induction of apoptosis (MB-MDA-435 cells): efficient apoptosis
- induction of apoptosis (GH4C1): did not lead to apoptosis
- induction of apoptosis (MCF-7 cells): efficient apoptosis
- induction of apoptosis 293: did not lead to apoptosis; also recorded: no detectable cell death
- induction of apoptosis (HBL100 cells): efficient apoptosis
- induction of apoptosis (HeLa cells [1]): did not lead to apoptosis; also recorded: no detectable cell death
- induction of apoptosis (TUNEL and/or Annexin V) (T-47D cells [2]): efficient apoptosis; also recorded: underwent rapid apoptosis
- induction of apoptosis (TUNEL and/or Annexin V) (T-47D cells [2]; listed as RepD1): efficiently induced death
- induction of apoptosis (COS-1): did not lead to apoptosis
- induction of apoptosis (MB-MDA-231 cells): efficient apoptosis
- induction of apoptosis (UOK-145): did not lead to apoptosis
- induction of apoptosis [3]: efficient apoptosis

Compound: COC(=O)C[C@H](NC(=O)[C@H](C)NC(=O)[C@@H](NC(=O)OCc1ccccc1)C(C)C)C(=O)CF [zVAD-fmk] (Cbz-Val-Ala-Asp(OMe)-CH2F)
- effect on apoptosis of HeLa cells treated with TNFα and cycloheximide (HeLa cells [4]): significantly inhibit apoptosis
- effect on apoptosis mediated by GFP-NRIF3 (T-47D cells [5]; [6]): did not inhibit apoptosis
- effect on apoptosis mediated by GFPNLS-DD1 (T-47D cells [5]; [6]): did not inhibit apoptosis
- cell death caused by inhibitor alone (T-47D cells [5]; T-47D, no transfected death construct, data not shown): did not cause cell death

Compound: COC(=O)C[C@H](NC(=O)[C@H](C)NC(=O)[C@@H](NC(=O)[C@H](CC(=O)OC)NC(=O)[C@@H](NC(=O)OCc1ccccc1)C(C)C)C(C)C)C(=O)CF [zVDVAD-fmk] (Cbz-VD(OMe)VAD(OMe)-CH2F)
- effect of caspase-2 chemical inhibitor on DD1-induced apoptosis (T-47D cells [5]; T-47D, 20 μM in medium, data not shown): efficiently blocked

Compound: Bcl-2: anti-apoptotic Bcl-2 family protein co-expressed from a vector
- effect of co-expression on DD1-mediated apoptosis (T-47D cells [5]; co-expressed with GFPNLS-DD1 in T-47D): significantly inhibited
